Several values for one entry are separate records, joined by “and”; a condition that tells them apart may be missing. Identical values can stand only once. Counter-ions that a name gives are not always drawn. Like-named read-outs stand apart in the source and are kept apart here.
Assays:
Asu-ACR-16 = Asu-ACR-16 (Ascaris suum, UniProt F1KYJ9); experiment: cell-based; assay type: cell-based
Experimental: (§1) cRNA for oocyte injection was prepared with the mMESSAGE mMACHINE T7 kit following manufacturers protocol (Ambion, USA). Concentration was determined using a Nanodrop spectrophotometer. Desired subunit combinations with associated accessory proteins were mixed and diluted with nuclease-free water to a final concentration of 250 ng/uL for each construct.
(§2) Adult female X. laevis oocyte extraction was performed in accordance with the McGill University Animal Use Protocol 2015–7758 following standard protocol. Briefly, frog ovary lobes were placed in a Ca^2+-free OR2 solution (82 mM NaCl, 2 mM KCl, 1 mM MgCl2, 5 mM HEPES buffer, pH 7.3) and manually divided into clusters of <10 oocytes with thin tweezers followed by a 90-minute incubation in 10 mg/mL collagenase type II (Sigma-Aldrich, USA). Oocytes were washed in Ca^2+-free OR2 and placed ND96 solution (NaCl 96 mM, KCl 2 mM, CaCl2 1.8 mM, MgCl2 1 mM and HEPES 5 mM, pH 7.3) supplemented with sodium pyruvate 2.5 mM [86] and incubated at 18°C until cRNA injection. Oocytes were injected with 50 nL (12.5 ng of each injected gene) of the desired cRNA subunit and accessory protein combination mix with the NanojectII (Drummond Scientific, USA). Following injection, oocytes were incubated in ND96 buffer at 18°C until electrophysiology. All electrophysiology was conducted two days post-injection, except for the expression analysis assay in which oocytes were measured every day after injection for three consecutive days.
(§3) All drugs were dissolved in recording solution (NaCl 100 mM, KCl 2.5 mM, CaCl2 1 mM, HEPES 5 mM, pH 7.3) to a stock concentration of 10 mM and diluted to their final recording concentrations. Oxantel and bephenium were first dissolved in DMSO to ensure a final recording concentration contained less than 0.1% DMSO. For agonist profiling, all drugs were diluted to a concentration of 100 μM.
(§4) Oocytes were placed individually in an RC3Z chamber (Harvard Apparatus, USA) submerged in recording solution (NaCl 100 mM, KCl 2.5 mM, CaCl2 1 mM, HEPES 5 mM, pH 7.3). The RC3Z chamber was connected to a perfusion system containing recording solution and ligand solutions. Pulled glass capillaries (World Precision Instruments, USA) were filled with 3M KCl and the tips clipped and checked for appropriate resistance (between 0.5 and 5 MΩ). A 3M KCl agar bridge grounded the oocyte bath chamber. Measurements were made using an Axon Axoclamp 900A amplifier with Digidata1550M. […] Ligand solutions were applied to the oocytes with an approximate flow rate of 1.2 m/s and current responses measured. Oocytes were exposed to the ligand solution until a distinct current peak was observed followed by a wash with the recording solution until current returned to baseline for a minimum of 10 seconds until the next ligand exposure. For BAPTA-AM exposed oocytes, oocytes were incubated in 100 μM BAPTA-AM for four hours prior to electrophysiology recording. Data was analyzed using Clampex 9.2 (Axon Instruments, USA) and statistical analysis and graphs produced in Prism (GraphPad version 9.1). T-tests were used to compare responses with error bars representing standard error. For concentration-response curves, individual oocyte current response to the different ligand concentrations were normalized to the response obtained with 300 μM. Data was fit using the Graphpad “log(agonist) vs normalized response–variable slope” equation, with 95% confidence intervals being reported. […] For examples of oocyte responses, recordings were filtered in Clampfit using the lowband pass at 40 Hz cutoff.

Dme-ACR-16 = Dme-ACR-16 (Dracunculus medinensis, UniProt A0A0N4U0T6); experiment: cell-based; assay type: cell-based
Chain of Dme-ACR-16 (A0A0N4U0T6 entry or part of it): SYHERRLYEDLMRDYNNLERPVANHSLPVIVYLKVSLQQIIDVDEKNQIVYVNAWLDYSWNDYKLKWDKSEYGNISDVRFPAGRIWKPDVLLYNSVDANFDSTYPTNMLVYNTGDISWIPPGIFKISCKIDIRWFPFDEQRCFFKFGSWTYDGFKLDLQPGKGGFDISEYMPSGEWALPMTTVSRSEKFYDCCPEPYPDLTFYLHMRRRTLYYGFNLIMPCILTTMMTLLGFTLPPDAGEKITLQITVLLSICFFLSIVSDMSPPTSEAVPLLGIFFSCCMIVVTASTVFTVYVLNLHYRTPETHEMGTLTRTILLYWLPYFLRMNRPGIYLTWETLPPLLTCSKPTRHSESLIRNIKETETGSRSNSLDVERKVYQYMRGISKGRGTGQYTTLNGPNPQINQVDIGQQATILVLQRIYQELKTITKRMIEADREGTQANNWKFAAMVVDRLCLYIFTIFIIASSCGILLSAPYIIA
Experimental: as §1, §2, §3, §4

Tzc-ACR-16 = Tzc-ACR-16 (Thelazia callipaeda, UniProt A0A158RD20); experiment: cell-based; assay type: cell-based
Chain of Tzc-ACR-16 (A0A158RD20 entry or part of it): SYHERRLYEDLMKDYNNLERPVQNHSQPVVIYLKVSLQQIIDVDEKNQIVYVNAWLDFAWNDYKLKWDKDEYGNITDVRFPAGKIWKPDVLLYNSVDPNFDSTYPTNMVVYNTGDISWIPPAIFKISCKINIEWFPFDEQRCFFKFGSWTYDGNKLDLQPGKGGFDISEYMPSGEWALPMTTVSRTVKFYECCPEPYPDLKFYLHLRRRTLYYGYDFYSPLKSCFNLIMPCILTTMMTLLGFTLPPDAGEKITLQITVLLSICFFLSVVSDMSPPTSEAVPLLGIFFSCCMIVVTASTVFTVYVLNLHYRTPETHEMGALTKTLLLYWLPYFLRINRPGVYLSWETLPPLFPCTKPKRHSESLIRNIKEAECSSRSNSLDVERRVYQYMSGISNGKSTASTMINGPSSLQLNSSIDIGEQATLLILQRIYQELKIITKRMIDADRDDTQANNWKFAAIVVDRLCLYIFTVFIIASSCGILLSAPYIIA
Experimental: as §1, §2, §3, §4

Gpu-ACR-16 = experiment: Voltage-clamp electrophysiology, N-AChR reconstituted in Xenopus laevis oocytes; assay type: cell-based, Gonglyonema pulchrum; settings: for response to 100 μM ligand relative to 100 μM ACh (in words): agonist panel, Fig 5C; for current response to 100 μM nicotine: co-injected: H. contortus RIC-3
Experimental: as §1, §2, §3, §4

[1] = biological target: Asu-ACR-16-bmaICL chimera (Ascaris suum; Brugia malayi, UniProt A0A4E9FSR7+F1KYJ9); assay type: cell-based, A. suum (B. malayi ICL); settings: compared to Asu-ACR-16 profile, S3D Fig
Experimental: B. malayi acr-16 and accessory proteins ric-3, unc-50, unc-74 and molo-1 were cloned from adult female B. malayi cDNA received as a gift from Dr. T. Geary using the primers described in S1 Table. B. malayi eat-18 was prepared from two overlapping oligonucleotide primers. Other subunits were synthesized from their predicted genome sequence (Gene Universal, USA) (S2 Table). […] All sequences were cloned into the pTD2 oocyte expression vector. Asu-ACR-16 and Tzc-ACR-16 chimeras were constructed using appropriate restriction enzymes, reciprocal exchange through ligation and confirmed by sequencing (McLab, USA).
as §1, §2
All drugs were dissolved in recording solution (NaCl 100 mM, KCl 2.5 mM, CaCl2 1 mM, HEPES 5 mM, pH 7.3) to a stock concentration of 10 mM and diluted to their final recording concentrations. […]
Oocytes were placed individually in an RC3Z chamber (Harvard Apparatus, USA) submerged in recording solution (NaCl 100 mM, KCl 2.5 mM, CaCl2 1 mM, HEPES 5 mM, pH 7.3). […] Ligand solutions were applied to the oocytes with an approximate flow rate of 1.2 m/s and current responses measured. […] Data was analyzed using Clampex 9.2 (Axon Instruments, USA) and statistical analysis and graphs produced in Prism (GraphPad version 9.1). […]

Bma-ACR-16 = assay type: cell-based, Brugia malayi; settings: co-injected: H. contortus RIC-3
Experimental: as §1, §2, §3, §4

C. elegans N-AChR = system: C. elegans N-AChR; parameters: method as in Charvet et al., 2018 [40]; settings: accessory protein Ric-3; ref Charvet et al., 2018 [40]; read-out: EC50 μM NIC; cited from earlier work
N. americanus N-AChR = settings: accessory protein Ric-3; ref [33]; read-out: EC50 μM NIC; cited from earlier work
A celanicum N-AChR = settings: accessory protein Ric-3; ref [33]; read-out: EC50 μM NIC; cited from earlier work
P. equorum N-AChR = settings: accessory protein Ric-3; ref [40]; read-out: EC50 μM NIC; cited from earlier work

Compound	response to 100 μM ligand relative to 100 μM ACh (in words) (Asu-ACR-16; agonist panel, Fig 5A)	response to 100 μM ligand relative to 100 μM ACh (in words) (Dme-ACR-16; agonist panel, Fig 5B)	response to 100 μM ligand relative to 100 μM ACh (in words) (Tzc-ACR-16; agonist panel, Fig 5D)	response to 100 μM ligand relative to 100 μM ACh (in words) (Gpu-ACR-16)	also measured
C[N+](C)(CCOc1ccccc1)Cc1ccccc1 [BEPH, bephenium]	No response	No response	No response	No response	–
C[N+](C)(C)CC(=O)O [BET, betaine]	No response	No response	No response	No response	–
NCCc1ccc(O)c(O)c1 [DA, dopamine]	No response	No response	No response	No response	–
C[N+]1(C)CCN(c2ccccc2)CC1 [DMPP, dimethylphenylpiperazinium]	smaller response	smaller response	smaller response	smaller response	response to 100 μM ligand relative to acetylcholine (in words) [1]: higher responses
CNC[C@H](O)c1ccc(O)c(O)c1 [EPI, epinephrine]	–	–	–	No response	response to 100 μM ligand relative to 100 μM ACh (in words) (Asu-ACR-16): No response; response to 100 μM ligand relative to 100 μM ACh (in words) (Dme-ACR-16): No response; response to 100 μM ligand relative to 100 μM ACh (in words) (Tzc-ACR-16): No response
c1ccc([C@H]2CN3CCSC3=N2)cc1 [LEV, (-)-tetramisole hydrochloride]	No response	No response	No response	No response	–
Cc1ccsc1/C=C/C1=NCCCN1C [MOR, morantel]	minimal response	minimal response	minimal response	minimal response	–
CN1CCC[C@H]1c1cccnc1 [NIC, (-)-nicotine hydrogen tartrate]	–	–	–	large response	EC50 (Asu-ACR-16): 5.1 µM; current response to 100 μM nicotine (Asu-ACR-16): 2067 ± 74 nA and 2000–2200 nA; response to 100 μM ligand relative to 100 μM ACh (in words) (Asu-ACR-16): large response; EC50 (Dme-ACR-16): 3.8 µM; current response to 100 μM nicotine (Dme-ACR-16): 2025 ± 81 nA and 2000–2200 nA; response to 100 μM ligand relative to 100 μM ACh (in words) (Dme-ACR-16): large response; EC50 (Tzc-ACR-16): 4.9 µM; current response to 100 μM nicotine (Tzc-ACR-16): 481 ± 45 nA and 400–600 nA; response to 100 μM ligand relative to 100 μM ACh (in words) (Tzc-ACR-16): large response; current response to 100 μM nicotine (Gpu-ACR-16): ~ 1400 nA; current response to 100 μM nicotine (Gpu-ACR-16; listed as nicotine): 1231 ± 98 nA; EC50 (Gpu-ACR-16; concentration-response 0.3-300 μM, normalized to 300 μM, with 95% CI, read-out: EC50 NIC): 2.1 µM; current response to 100 μM nicotine (Bma-ACR-16): 0 ± 0 nA and no measurable current; EC50 (C. elegans N-AChR): 15.1 ± 1.3 µM; EC50 (N. americanus N-AChR): 598 ± 59.1 µM; EC50 (A celanicum N-AChR): 24.4 ± 2.89 µM; EC50 (P. equorum N-AChR): 2.9 ± 0.5 µM
NC[C@H](O)c1ccc(O)c(O)c1 [NOR, norepinephrine]	No response	No response	No response	No response	–
CN1CCCN=C1/C=C/c1cccc(O)c1 [OXA, oxantel]	smaller response	smaller response	smaller response	smaller response	–
CN1CCCN=C1/C=C/c1cccs1 [PYR, pyrantel]	minimal response	minimal response	minimal response	minimal response	–
NCCc1ccc(O)cc1 [TYR, tyramine]	No response	No response	No response	No response	–

From PMC9714921 (PLOS Pathogens, 2022)
